The supplement of paper PMC10307832

Experiments:
Test in all cases: relative viability (nuclei count vs DMSO), 5 days (fraction); higher = more cells survive
ALW-II-49-7 + Pictilisib = compound: Cc1ccc(C(=O)Nc2cccc(C(F)(F)F)c2)cc1Nc1cncc(C(N)=O)c1 [ALW-II-49-7] + CS(=O)(=O)N1CCN(Cc2cc3nc(-c4cccc5[nH]ncc45)nc(N4CCOCC4)c3s2)CC1 [Pictilisib] (partner 1 µM)
Procedure, shortened: (§1)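 Nuclei were stained with Hoechst during a one-step fixation (final 0.05% Triton X-100, 1% formaldehyde, 1 ug/ml Hoechst) carried out 5 days after dosing, then counted on 4× images. The cells, lung cancer lines in 1536-well plates, had been dosed by pin tool the day after seeding with one drug alone or a fixed anchor-drug dose plus five library-drug doses (not always all listed) in √10 steps. Relative viability is the nuclei count in treated wells divided by that in vehicle wells, and each value is the median of duplicate plates.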

XMD13-2 + Linsitinib = compound: C1CC1C(=O)NC2=NNC3=C2C=CC(=C3)C4=CC(=CC=C4)C(=O)NC5CC5 [XMD13-2] + C[C@]1(O)C[C@@H](c2nc(-c3ccc4ccc(-c5ccccc5)nc4c3)c3c(N)nccn32)C1 [Linsitinib] (partner 1 µM)
Procedure, shortened: as §1

XMD13-2 + Pemetrexed = compound: C1CC1C(=O)NC2=NNC3=C2C=CC(=C3)C4=CC(=CC=C4)C(=O)NC5CC5 [XMD13-2] + Nc1nc2[nH]cc(CCc3ccc(C(=O)N[C@@H](CCC(=O)O)C(=O)O)cc3)c2c(=O)[nH]1 [Pemetrexed] (partner 0.2 µM)
Procedure, shortened: as §1

XMD13-2 + Bortezomib = compound: C1CC1C(=O)NC2=NNC3=C2C=CC(=C3)C4=CC(=CC=C4)C(=O)NC5CC5 [XMD13-2] + CC(C)C[C@H](NC(=O)[C@H](Cc1ccccc1)NC(=O)c1cnccn1)B(O)O [Bortezomib] (partner 0.002 µM)
Procedure, shortened: as §1

Row | Cell Line | relative viability (ALW-II-49-7 + Pictilisib; first compound 0.08 µM) | relative viability (ALW-II-49-7 + Pictilisib; first compound 2.53 µM) | relative viability (ALW-II-49-7 + Pictilisib; first compound 8 µM) | relative viability (XMD13-2 + Linsitinib; first compound 0.05 µM) | relative viability (XMD13-2 + Linsitinib; first compound 0.1581 µM) | relative viability (XMD13-2 + Linsitinib; first compound 0.5 µM) | relative viability (XMD13-2 + Linsitinib; first compound 1.581 µM) | relative viability (XMD13-2 + Linsitinib; first compound 5 µM) | relative viability (XMD13-2 + Pemetrexed; first compound 0.05 µM) | relative viability (XMD13-2 + Pemetrexed; first compound 0.1581 µM) | relative viability (XMD13-2 + Pemetrexed; first compound 0.5 µM) | relative viability (XMD13-2 + Pemetrexed; first compound 1.581 µM) | relative viability (XMD13-2 + Pemetrexed; first compound 5 µM) | relative viability (XMD13-2 + Bortezomib; first compound 0.05 µM) | relative viability (XMD13-2 + Bortezomib; first compound 0.5 µM) | relative viability (XMD13-2 + Bortezomib; first compound 1.581 µM) | relative viability (XMD13-2 + Bortezomib; first compound 5 µM) | relative viability (ALW-II-49-7 + Pictilisib; first compound 0.253 µM) | relative viability (ALW-II-49-7 + Pictilisib; first compound 0.8 µM) | relative viability (XMD13-2 + Bortezomib; first compound 0.1581 µM)
1 | CAL-12T | 0.343 | 0.715 | 0.395 | 0.802 | 0.764 | 0.837 | 0.68 | 0.843 | 1.27 | 1.1 | 1.25 | 1.11 | 1.23 | 1.2 | 1.01 | 0.837 | 1.16 |  |  | 
2 | COR-L23 | 0.839 | 0.72 | 0.779 | 1.01 | 0.917 | 1.02 | 0.848 | 0.872 | 0.197 | 0.194 | 0.204 | 0.218 | 0.197 | 1.12 | 1.04 | 1.08 | 1.09 | 0.548 | 0.739 | 0.994
3 | COR-L 105 | 0.543 | 0.344 | 0.422 | 1.04 | 1.13 | 1 | 0.875 | 0.797 | 1.01 | 1.26 | 1.04 | 0.98 | 1.26 | 1.06 | 0.737 | 0.905 | 0.75 | 0.419 | 0.387 | 0.953
4 | Calu-6 | 1.02 | 0.735 | 0.72 | 0.949 | 0.996 |  | 0.912 | 0.913 |  |  |  |  |  | 1 | 1.1 | 0.871 | 0.789 | 0.99 | 0.907 | 1.04
